Measurements published in US20060120962A1, “Cardiac safe, rapid medication delivery” (priority 2004, published 2006).
Where “and” joins values, the source holds several entries; their conditions need not be identical. Identical values can stand only once. Like-named read-outs stand apart in the source and are kept apart here.

Assays:
in vivo = settings: female, mongrel, dog, 7 mg; for AUC(0-t): AUC0-10 min; for bioavailability: F, based on venous AUCinf
[1] = humans; reported; cited from earlier work
[2] = Clinical observations and body weights after prochlorperazine administration in dogs; assay type: in vivo; settings: dog
[3] = Pharmacokinetics of aerosolized alprazolam in dog (left ventricular and venous plasma) vs IV bolus; assay type: in vivo; settings: for AUC(0-t) / bioavailability / Cmax / Tmax / AUC / half-life: female, mongrel, 0.7 mg; for AUC(0-t): venous plasma; for Tmax: median
Procedure: (§1) This study consisted of five young adult, female, mongrel dogs. Four animals per session were treated with the test article, alprazolam, in two separate surgical/dosing sessions. In Session 1 the test article was administered intravenously (IV) as a 5-second bolus. […] The animals were dosed at a level of 0.7 mg of alprazolam in both dosing sessions.
Four animals per session were treated with the test article, alprazolam, in two separate surgical/dosing sessions. The animals were dosed at a level of 0.7 mg of alprazolam in both dosing sessions.
Anesthesia was performed substantially as described in Example 1.
Whole blood samples were centrifuged. […] All plasma samples were stored until analyzed. […] Plasma samples were mixed with spiking solutions of alprazolam, α-hydroxyalprazolam, 4-hydroxyalprazolam and an internal standard (alprazolam-d5). […] Drug or metabolite concentrations were calculated by comparing (drug or metabolite)/internal standard ratios to standard curves prepared in dog plasma.
Individual plasma concentration-time data from four animals, two sampling sites, and two dose routes were analyzed by noncompartmental pharmacokinetic methods via WinNonlin using nominal time points. Areas were calculated using the linear trapezoidal rule.

[4] = Clinical observations and body weights after alprazolam administration in dogs; assay type: in vivo; settings: dog
Procedure: as §1

[5] = left ventricular plasma, inhaled or intranasal, dog left ventricular plasma, aerosol inhalation
[6] = left ventricular plasma, iv, dog left ventricular plasma, 2-min IV infusion
[7] = left ventricular plasma, iv, dog left ventricular plasma, IV bolus
[8] = venous plasma, iv, dog venous plasma, 2-min IV infusion
[9] = venous plasma, iv, dog venous plasma, IV bolus
[10] = dog left ventricular plasma, IV bolus
[11] = dog venous plasma, 7 mg, 2-min IV infusion
[12] = dog venous plasma, 7 mg, IV bolus
[13] = dog venous plasma, 7 mg, aerosol inhalation
[14] = inhaled or intranasal, dog left ventricular plasma, aerosol inhalation
[15] = inhaled or intranasal, dog venous plasma, aerosol inhalation

CN1CCN(CCCN2c3ccccc3Sc3ccc(Cl)cc32)CC1 [PCZ, prochlorperazine]
Tmax (in vivo; left ventricular and venous plasma, iv, dog left ventricular and venous plasma, 2-minute IV infusion): 1.25 to 3 min | AUC(0-t) (in vivo; [5]): 89.1 ± 13.7 ng·h/mL | Cmax (in vivo; [5]): 3260 ± 975 ng/mL | Tmax (in vivo; [5]): 0.33 min | AUC(0-t) (in vivo; [6]): 88.5 ± 25.7 ng·h/mL | AUC(0-t) (in vivo; [7]): 98.3 ± 15 ng·h/mL | Cmax (in vivo; [6]): 1360 ± 396 ng/mL | Cmax (in vivo; [7]): 3480 ± 767 ng/mL | Tmax (in vivo; [6]): 1.9 min | Tmax (in vivo; [7]): 0.5 min | Cmax (in vivo; venous plasma, inhaled or intranasal, dog venous plasma, thermal aerosol single deep inhalation, mean ± SD): 886 ± 268 ng/mL | half-life (in vivo; venous plasma, inhaled or intranasal, Half-Life, dog venous plasma, aerosol inhalation): 76.2 ± 17.4 min | Tmax (in vivo; venous plasma, inhaled or intranasal, dog venous plasma, aerosol inhalation): 1 min | bioavailability (in vivo; venous plasma, inhaled, aerosol bioavailability to IV bolus, 7 mg aerosol vs IV bolus): 82% | bioavailability (in vivo; venous plasma, inhaled, aerosol bioavailability to IV infusion, 7 mg aerosol vs 2-min IV infusion): 109% | clearance (in vivo; venous plasma, intravenous, inhaled, mean clearances, dog venous, span over the three groups): 18.9 to 24.8 mL/min/kg | half-life (in vivo; venous plasma, intravenous, inhaled, mean half-lives, dog venous, span over the three groups): 76.2 to 105 min | clearance (in vivo; venous plasma, iv, CL, dog venous plasma, 2-min IV infusion): 24.8 mL/min/kg | clearance (in vivo; venous plasma, iv, CL, dog venous plasma, IV bolus): 18.9 ± 3.6 mL/min/kg | Cmax (in vivo; venous plasma, iv, dog venous plasma, 2-min IV infusion, mean ± SD): 442 ± 270 ng/mL | Cmax (in vivo; venous plasma, iv, dog venous plasma, 5-second IV bolus, mean ± SD): 1300 ± 1260 ng/mL | half-life (in vivo; venous plasma, iv, Half-Life, dog venous plasma, 2-min IV infusion): 105 ± 9.6 min | half-life (in vivo; venous plasma, iv, Half-Life, dog venous plasma, IV bolus): 82.2 ± 6 min | Tmax (in vivo; [8]): 2.5 min | Tmax (in vivo; [9]): 1.1 min | Vd (in vivo; [8]): 3.8 L/kg | Vd (in vivo; [9]): 2.3 ± 0.6 L/kg | Cmax (dog left ventricular plasma, 7 mg, 2-min IV infusion): 1365.3 ± 396.2 ng/mL | Cmax (dog left ventricular plasma, 7 mg, IV bolus): 3481.8 ± 787.2 ng/mL | Cmax (dog left ventricular plasma, 7 mg, aerosol inhalation): 3261.5 ± 974.8 ng/mL | Cmax (dog left ventricular plasma, 7 mg, aerosol inhalation, listed as prochlorperazine): 3261 ng/mL | time of maximum left ventricular concentration [10]: 30 s | time of maximum left ventricular concentration (dog left ventricular plasma, aerosol inhalation): 20 s | AUC0-10 min [11]: 32.2 ± 21.1 ng·h/mL | AUCinf [11]: 229.9 ± 35.7 ng·h/mL | Tlast [11]: 8.0 ± 0.0 h | Cmax (dog venous plasma, 7 mg, 2-min IV infusion, mean ± SD): 441.8 ± 269.9 ng/mL | AUC0-10 min [12]: 63.4 ± 15.7 ng·h/mL | AUCinf [12]: 305.1 ± 59.3 ng·h/mL | Tlast [12]: 8.0 ± 0.0 h | AUC0-10 min [13]: 56.5 ± 10.6 ng·h/mL | AUCinf [13]: 250.4 ± 58.2 ng·h/mL | Tlast [13]: 6.0 ± 2.3 h | Vd [13]: 2.6 ± 1.1 L/kg | Cmax (dog venous plasma, 7 mg, thermal aerosol single deep inhalation, mean ± SD): 886.5 ± 268.3 ng/mL | mean maximum concentration, left ventricular plasma relative to venous plasma (dog, 2-minute IV infusion): approximately 3 fold | venous plasma concentration at time points after 8 hr (undetectable levels) (dog, 2-minute IV infusion): < 2 ng/mL | peak concentration in left ventricular plasma relative to 2-minute IV infusion (dog, aerosol and IV bolus treatments): approximately 2.5 fold | F, aerosol bioavailability to IV infusion (dog, based on venous AUCinf, 7 mg aerosol vs 2-min IV infusion): 108.7±19% and 108.9 ± 19.2% | F, aerosol bioavailability to IV bolus (dog, based on venous AUCinf, 7 mg aerosol vs IV bolus): 82.1 ± 13.1% | (ventricular) spike index for inhalation (dog, left ventricular Cmax aerosol divided by Cmax 2-min IV infusion): 2.4 | oral bioavailability [1]: 12.5% | adverse effects by clinical observations ([2]; 7 mg IV infusion, aerosol, IV bolus sessions): no adverse effects | body weights between treatment sessions ([2]; all animals): maintained

Cc1nnc2n1-c1ccc(Cl)cc1C(c1ccccc1)=NC2 [alprazolam]
last time concentrations measurable (last sampling time) ([3]; dog left ventricle plasma, all cases): 10 min | median time through which concentrations were measurable ([3]; dog venous plasma, IV dosing): 240 min | median time through which concentrations were measurable ([3]; dog venous plasma, inhalation dosing): 360 min | mean Cmax for left ventricle plasma relative to venous plasma ([3]; dog, both routes of administration): ~7 fold | mean Cmax after inhalation as percentage of values after intravenous dosing ([3]; dog, left ventricle and venous plasma): approximately 70% | bioavailability based upon mean AUC (n=4) by each route ([3]; dog, left ventricle sampling): 81.5% | bioavailability based upon mean AUC (n=4) by each route ([3]; dog, systemic plasma): 94.9% | AUC(0-t) ([3]; dog, inhaled or intranasal, dog venous plasma, aerosol inhalation, read-out: AUC0-240 (converted)): 38.3 ng·h/mL | AUC(0-t) ([3]; dog, inhaled or intranasal, dog venous plasma, aerosol inhalation, read-out: AUClast (converted)): 43.3 ng·h/mL | AUC(0-t) ([3]; dog, iv, dog venous plasma, IV bolus, read-out: AUC0-240 (converted)): 42.3 ng·h/mL | AUC(0-t) ([3]; dog, iv, dog venous plasma, IV bolus, read-out: AUClast (converted)): 45.3 ng·h/mL | bioavailability ([3]; inhaled or intranasal, dog, based on AUC for venous plasma, n=3, read-out: F, mean bioavailability for inhalation administration): 95.5% | Cmax [3, 14]: 676 ± 99.5 ng/mL | Tmax [3, 14]: 0.25 min | AUC [3, 15]: 49.7 ng·h/mL | Cmax ([3]; inhaled or intranasal, dog venous plasma, aerosol inhalation, mean ± SD, n=4): 102 ± 57.2 ng/mL | Tmax [3, 15]: 0.5 min | half-life ([3]; inhaled or intranasal, dog venous plasma, aerosol inhalation, read-out: Half-Life): 115 ± 12.9 min | half-life ([3]; intravenous, inhaled, dog venous plasma, both routes, read-out: mean terminal elimination half-life): ~110 min | bioavailability ([3]; left ventricular plasma, inhaled or intranasal, dog, based on AUC for left ventricle plasma, three animals, read-out: mean bioavailability for inhalation administration): 85% | half-life ([3]; left ventricular plasma, intravenous, inhaled, dog left ventricle plasma, both routes, read-out: mean terminal elimination half-life): ~4 min | Cmax [3, 10]: 967 ± 303 ng/mL | Tmax [3, 10]: 0.42 min | Cmax ([3]; dog venous plasma, 5-second IV bolus, mean ± SD, n=4): 147 ± 93.5 ng/mL | AUC ([3]; dog venous plasma, IV bolus): 52.3 ng·h/mL | Tmax ([3]; dog venous plasma, IV bolus): 0.75 min | half-life ([3]; dog venous plasma, IV bolus, read-out: Half-Life): 106 ± 22 min | body weight change between treatment sessions [4]: no remarkable change | adverse effects by clinical observations ([4]; 0.7 mg IV bolus and aerosol sessions): no adverse effects
